Values joined by “and” are separate entries in the source; they are usually repeats but may differ in a detail not shown here. Equal entries are not always repeated. Toxic doses and inconclusive results are not listed. Cut-off read from the data, not from the text of the source: active = T/C of 150% or more; inactive = T/C below 125%.
System: L1210 leukemia ip in BDF1 mice, survival T/C
Assay: NCI In Vivo Anticancer Drug Screen. Data for tumor model L1210 Leukemia (intraperitoneal) in B6D2F1 (BDF1) mice
Settings: higher = longer survival
Procedure, shortened: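 Antitumor effect is assessed in tumor-bearing animals. Survival in the compound arm is compared with a vehicle-dosed control arm and expressed as their quotient.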

Measured: T/C

S=c1nc[nH]c2nc[nH]c12
inactive: endpoint: mean survival time, dose: 0.15 mg/kg/injection, schedule: Q01DX001 (ip), vehicle: other 102 % of control | endpoint: mean survival time, dose: 0.15 mg/kg/injection, schedule: Q01DX Z (ip), vehicle: other 98 % of control | endpoint: mean survival time, dose: 0.3 mg/kg/injection, schedule: Q01DX001 (ip), vehicle: other 101 % of control | endpoint: mean survival time, dose: 0.3 mg/kg/injection, schedule: Q01DX Z (ip), vehicle: other 101 % of control | endpoint: mean survival time, dose: 0.6 mg/kg/injection, schedule: Q01DX001 (ip), vehicle: other 93 % of control and 101 % of control | endpoint: mean survival time, dose: 0.6 mg/kg/injection, schedule: Q01DX Z (ip), vehicle: other 96 % of control | endpoint: mean survival time, dose: 0.63 mg/kg/injection, schedule: Q01DX015 (ip), vehicle: alkali diluted with saline 95 % of control | endpoint: mean survival time, dose: 1.1 mg/kg/injection, schedule: Q01DX001 (ip), vehicle: other 104 % of control | endpoint: mean survival time, dose: 1.25 mg/kg/injection, schedule: Q01DX015 (ip), vehicle: alkali diluted with saline 95 % of control | endpoint: mean survival time, dose: 1.3 mg/kg/injection, schedule: Q01DX001 (ip), vehicle: other 101 % of control | endpoint: mean survival time, dose: 1.3 mg/kg/injection, schedule: Q01DX Z (ip), vehicle: other 102 % of control | endpoint: mean survival time, dose: 1.9 mg/kg/injection, schedule: Q01DX009 (ip), vehicle: alkali diluted with saline 107 % of control | endpoint: mean survival time, dose: 2.0 mg/kg/injection, schedule: Q01DX001 (ip), vehicle: carboxymethylcellulose (CMC) 107 % of control | endpoint: mean survival time, dose: 2.2 mg/kg/injection, schedule: Q01DX001 (ip), vehicle: other 104 % of control | endpoint: mean survival time, dose: 2.5 mg/kg/injection, schedule: Q01DX015 (ip), vehicle: alkali diluted with saline 100 % of control | endpoint: mean survival time, dose: 2.5 mg/kg/injection, schedule: Q01DX Z (ip), vehicle: other 107 % of control | endpoint: mean survival time, dose: 3.8 mg/kg/injection, schedule: Q01DX009 (ip), vehicle: alkali diluted with saline 105 % of control | endpoint: mean survival time, dose: 3.8 mg/kg/injection, schedule: Q03DX Z (ip), vehicle: other 108 % of control | endpoint: mean survival time, dose: 4.0 mg/kg/injection, schedule: Q01DX001 (ip), vehicle: carboxymethylcellulose (CMC) 98 % of control | endpoint: mean survival time, dose: 4.4 mg/kg/injection, schedule: Q01DX001 (ip), vehicle: other 102 % of control | endpoint: mean survival time, dose: 5.0 mg/kg/injection, schedule: Q01DX015 (ip), vehicle: alkali diluted with saline 103 % of control | endpoint: mean survival time, dose: 5.0 mg/kg/injection, schedule: Q01DX Z (ip), vehicle: alkali diluted with saline 104 % of control and 110 % of control | endpoint: mean survival time, dose: 7.5 mg/kg/injection, schedule: Q01DX009 (ip), vehicle: alkali diluted with saline 101 % of control | endpoint: mean survival time, dose: 7.5 mg/kg/injection, schedule: Q01DX009 (ip), vehicle: saline 103 % of control | endpoint: mean survival time, dose: 7.5 mg/kg/injection, schedule: Q03DX Z (ip), vehicle: other 111 % of control | endpoint: mean survival time, dose: 8.0 mg/kg/injection, schedule: Q01DX001 (ip), vehicle: carboxymethylcellulose (CMC) 95 % of control | endpoint: mean survival time, dose: 8.0 mg/kg/injection, schedule: Q04DX002 (ip), vehicle: alkali diluted with saline 105 % of control and 106 % of control | endpoint: mean survival time, dose: 10.0 mg/kg/injection, schedule: Q01DX006 (iv), vehicle: other 103 % of control | endpoint: mean survival time, dose: 10.0 mg/kg/injection, schedule: Q01DX009 (oral), vehicle: saline with Tween-80 102 % of control and 107 % of control | endpoint: mean survival time, dose: 10.0 mg/kg/injection, schedule: Q01DX015 (ip), vehicle: alkali diluted with saline 101 % of control | endpoint: mean survival time, dose: 10.0 mg/kg/injection, schedule: Q01DX Z (ip), vehicle: alkali diluted with saline 110 % of control | endpoint: mean survival time, dose: 10.0 mg/kg/injection, schedule: Q01DX Z (sc), vehicle: other 111 % of control | endpoint: mean survival time, dose: 12.0 mg/kg/injection, schedule: Q04DX003 (ip), vehicle: saline 105 % of control | endpoint: mean survival time, dose: 12.5 mg/kg/injection, schedule: Q01DX009 (ip), vehicle: saline 112 % of control | endpoint: mean survival time, dose: 12.5 mg/kg/injection, schedule: Q01DX017 (ip), vehicle: other 104 % of control | endpoint: mean survival time, dose: 12.5 mg/kg/injection, schedule: Q01DX Z (ip), vehicle: other 105 % of control | endpoint: mean survival time, dose: 15.0 mg/kg/injection, schedule: Q01DX009 (ip), vehicle: saline 112 % of control | endpoint: mean survival time, dose: 16.0 mg/kg/injection, schedule: Q01DX001 (ip), vehicle: carboxymethylcellulose (CMC) 101 % of control | endpoint: mean survival time, dose: 16.0 mg/kg/injection, schedule: Q04DX002 (ip), vehicle: alkali diluted with saline 100 % of control and 102 % of control | endpoint: mean survival time, dose: 18.0 mg/kg/injection, schedule: Q01DX015 (ip), vehicle: alkali diluted with saline 104 % of control | endpoint: mean survival time, dose: 20.0 mg/kg/injection, schedule: Q01DX005 (ip), vehicle: alkali diluted with water 108 % of control and 111 % of control | endpoint: mean survival time, dose: 20.0 mg/kg/injection, schedule: Q01DX006 (iv), vehicle: other 108 % of control | endpoint: mean survival time, dose: 20.0 mg/kg/injection, schedule: Q01DX009 (oral), vehicle: saline with Tween-80 98 % of control and 105 % of control | endpoint: mean survival time, dose: 20.0 mg/kg/injection, schedule: Q01DX Z (ip), vehicle: alkali diluted with saline 110 % of control | endpoint: mean survival time, dose: 20.0 mg/kg/injection, schedule: Q02DX008 (ip), vehicle: alkali diluted with saline 105 % of control | endpoint: mean survival time, dose: 27.0 mg/kg/injection, schedule: Q01DX015 (ip), vehicle: alkali diluted with saline 106 % of control | endpoint: mean survival time, dose: 30.0 mg/kg/injection, schedule: Q04DX003 (ip), vehicle: saline 109 % of control | endpoint: mean survival time, dose: 32.0 mg/kg/injection, schedule: Q01DX001 (ip), vehicle: carboxymethylcellulose (CMC) 101 % of control | endpoint: mean survival time, dose: 32.0 mg/kg/injection, schedule: Q04DX002 (ip), vehicle: alkali diluted with saline 102 % of control and 103 % of control | endpoint: mean survival time, dose: 35.0 mg/kg/injection, schedule: Q01DX011 (ip), vehicle: alkali diluted with saline 108 % of control | endpoint: mean survival time, dose: 40.0 mg/kg/injection, schedule: Q01DX001 (ip), vehicle: alkali diluted with saline 104 % of control | endpoint: mean survival time, dose: 40.0 mg/kg/injection, schedule: Q01DX006 (iv), vehicle: other 111 % of control | endpoint: mean survival time, dose: 40.0 mg/kg/injection, schedule: Q#A X Z (ip), vehicle: other 94 % of control | endpoint: mean survival time, dose: 45.0 mg/kg/injection, schedule: Q06HX012 (ip), vehicle: alkali diluted with saline 96 % of control | endpoint: mean survival time, dose: 53.0 mg/kg/injection, schedule: Q01DX011 (ip), vehicle: alkali diluted with saline 109 % of control | endpoint: mean survival time, dose: 60.0 mg/kg/injection, schedule: Q01DX001 (ip), vehicle: alkali diluted with saline 110 % of control and 111 % of control | endpoint: mean survival time, dose: 60.0 mg/kg/injection, schedule: Q## X015 (ip), vehicle: other 107 % of control | endpoint: mean survival time, dose: 64.0 mg/kg/injection, schedule: Q01DX001 (ip), vehicle: carboxymethylcellulose (CMC) 98 % of control | endpoint: mean survival time, dose: 80.0 mg/kg/injection, schedule: Q01DX Z (ip), vehicle: carboxymethylcellulose (CMC) 105 % of control | endpoint: mean survival time, dose: 90.0 mg/kg/injection, schedule: Q01DX009 (ip), vehicle: carboxymethylcellulose (CMC) 107 % of control | endpoint: mean survival time, dose: 109.0 mg/kg/injection, schedule: Q01DX001 (ip), vehicle: alkali diluted with saline 110 % of control and 112 % of control | endpoint: mean survival time, dose: 109.0 mg/kg/injection, schedule: Q## X001 (ip), vehicle: alkali diluted with saline 111 % of control | endpoint: mean survival time, dose: 112.0 mg/kg/injection, schedule: Q02DX010 (ip), vehicle: carboxymethylcellulose (CMC) 110 % of control | endpoint: mean survival time, dose: 120.0 mg/kg/injection, schedule: Q01DX009 (ip), vehicle: carboxymethylcellulose (CMC) 103 % of control | endpoint: mean survival time, dose: 128.0 mg/kg/injection, schedule: Q01DX001 (ip), vehicle: carboxymethylcellulose (CMC) 95 % of control | endpoint: mean survival time, dose: 129.2 mg/kg/injection, schedule: Q02DX010 (ip), vehicle: carboxymethylcellulose (CMC) 110 % of control | endpoint: mean survival time, dose: 146.0 mg/kg/injection, schedule: Q01DX001 (ip), vehicle: alkali diluted with saline 108 % of control and 112 % of control | endpoint: mean survival time, dose: 151.0 mg/kg/injection, schedule: Q01DX015 (ip), vehicle: other 105 % of control | endpoint: mean survival time, dose: 160.0 mg/kg/injection, schedule: Q01DX009 (ip), vehicle: saline with Tween-80 104 % of control | endpoint: mean survival time, dose: 160.0 mg/kg/injection, schedule: Q01DX Z (im), vehicle: other 102 % of control | endpoint: mean survival time, dose: 200.0 mg/kg/injection, schedule: Q01DX009 (ip), vehicle: Klucel (hydroxypropylcellulose) (HPC) 103 % of control | endpoint: mean survival time, dose: 200.0 mg/kg/injection, schedule: Q01DX009 (ip), vehicle: alkali diluted with saline 108 % of control | endpoint: mean survival time, dose: 200.0 mg/kg/injection, schedule: Q## X009 (ip), vehicle: alkali diluted with saline 108 % of control | endpoint: mean survival time, dose: 202.0 mg/kg/injection, schedule: Q01DX009 (ip), vehicle: alkali diluted with saline 95 % of control | endpoint: mean survival time, dose: 240.0 mg/kg/injection, schedule: Q01DX009 (ip), vehicle: alkali diluted with saline 96 % of control | endpoint: mean survival time, dose: 240.0 mg/kg/injection, schedule: Q03DX Z (ip), vehicle: other 101 % of control | endpoint: mean survival time, dose: 256.0 mg/kg/injection, schedule: Q01DX001 (ip), vehicle: carboxymethylcellulose (CMC) 98 % of control | endpoint: mean survival time, dose: 303.0 mg/kg/injection, schedule: Q04DX003 (ip), vehicle: saline with Tween-80 101 % of control | endpoint: mean survival time, dose: 400.0 mg/kg/injection, schedule: Q04DX003 (ip), vehicle: saline with Tween-80 101 % of control | endpoint: mean survival time, dose: 510.0 mg/kg/injection, schedule: Q04DX002 (ip), vehicle: alkali diluted with saline 96 % of control and 104 % of control | endpoint: mean survival time, dose: 1020.0 mg/kg/injection, schedule: Q07DX Z (ip), vehicle: other 93 % of control | endpoint: mean survival time, dose: 2675.0 micrograms/kg/injection, schedule: Q01DX Z (ip), vehicle: carboxymethylcellulose (CMC) 108 % of control | endpoint: median survival time, dose: 6.25 mg/kg/injection, schedule: Q01DX009 (ip), vehicle: other 105 % of control | endpoint: median survival time, dose: 25.0 mg/kg/injection, schedule: Q01DX009 (ip), vehicle: other 111 % of control | endpoint: median survival time, dose: 100.0 mg/kg/injection, schedule: Q01DX009 (ip), vehicle: other 111 % of control | endpoint: median survival time, dose: 160.0 mg/kg/injection, schedule: Q01DX009 (ip), vehicle: saline 100 % of control

Reference: PubChem BioAssay AID248 (DTP/NCI, 2004)
